Where “and” joins values, the source holds several entries; their conditions need not be identical. Equal entries are not always repeated. Calls of active or inactive are those of the source.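 The calls were made as follows: active = compounds giving half or more protection of infected cells from virus-caused growth loss, again on retest; inactive = the rest.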 Where a SMILES comes first, the peptide text is derived from it.
System: CEM cells HIV-1 protection, formazan growth assay
Experiment: NCI AIDS Antiviral Assay
Settings: for IC50: measured here: growth of uninfected CEM cells
Summary of the method: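 Five concentrations of each compound were applied to infected and uninfected human CEM cells. Protection from HIV-1 was judged from growth measured with a soluble formazan assay.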

SMILES	EC50	IC50	outcome
CC(C)N(C(=O)C12C3C4C5C3C1(C#N)C5C42)C(C)C (stereo not drawn)	> 195 µM	> 195 µM	–
Nc1ncc2c(ncn2CC(O)CO)n1 (stereo not drawn)	> 1200 µM	> 1200 µM	–
CCC1SC(C)C(=O)NC1=O (stereo not drawn)	> 661 µM	> 661 µM	–
COc1ccc2[nH]c(C)cc2c1CN	> 575 µM	120 µM	–
Cc1c(C(=O)CC(=O)C(=O)Nc2ccc(Cl)c(Cl)c2)[n+](=O)c2ccccc2n1[O-]	> 6.31 µM	> 6.31 µM	–
COc1ccc(C(=O)/C(Br)=C/C(=O)O)cc1	> 427 µM	22.9 µM	–
NC(=O)c1c([N+](=O)[O-])ncn1C1OC(CO)C(F)C1O (stereo not drawn)	> 200 µM	> 200 µM	–
CCOC(=O)c1nc2ccc(C(F)(F)F)cc2nc1NCc1ccc(Cl)c(Cl)c1	> 100 µM	17 µM	–
CCCCCCCc1ccc(OC2OC(COC(C)=O)C(OC(C)=O)C(OC(C)=O)C2OC(C)=O)cc1 (stereo not drawn)	> 91.2 µM	49 µM and > 85.1 µM	–
C=CCC(C(=O)NC(N)=O)c1ccccc1 (stereo not drawn)	> 832 µM	617 µM	–
COc1ccc2c(c1)-c1c(c3cc(OC)ccc3n1CCN1CCOCC1)CC2	–	–	inactive
COC(OC)c1c2c(O)c3c(O)c(C)c4c(c3c1O)C(=O)C(C)(O/C=C/C(OC)C(C)C(OC(C)=O)C(C)C(O)C(C)C(O)C(C)/C=C/C=C(/C)C(=O)N2)O4 (stereo not drawn)	> 200 µM	25.1 µM	–
CCN1CCNc2c3cc(OC)ccc3nc3c([N+](=O)[O-])ccc1c23	> 200 µM	0.11 µM	–
CC(C)CC(NC(=O)C(Cc1ccc(O)cc1)NC(=O)C(CO)NC(=O)C(CCC(=O)O)NC(=O)C1CCCN1C(=O)C(CC(C)C)NC(=O)C(C)NC(=O)CNC(=O)C(N)CCC(=O)O)C(=O)NC(Cc1c[nH]c2ccccc12)C(=O)O (stereo not drawn) (H-EGALPESYLW-OH; configuration not given here)	–	–	inactive
Cc1c(C(=N)N)oc2ccccc12	–	–	inactive
CCc1cc(Cc2cc(CC)c(NC(=O)C(=O)Cc3ccccn3)c(CC)c2Cl)c(Cl)c(CC)c1NC(=O)C(=O)Cc1ccccn1	> 72.4 µM	> 72.4 µM	–
Nc1ccc(F)cc1-c1nc2ccc(F)cc2c2nc3ccccc3n12	–	–	inactive
CC/C(=N/O)c1ccc2[nH]c3c(C)cc([N+](=O)[O-])c(C)c3c2c1	> 12 µM	7.41 µM	–
COC(=O)[C@H](NC(=O)OC(C)(C)C)[C@H]1COC(C)(C)O1	> 200 µM	> 200 µM	–
CN(C)/C=N/c1nc2ncn(CCOC(=O)c3ccccc3)c2c(=O)[nH]1	> 708 µM	> 708 µM	–
CC(=O)/C(=C\c1cccc([N+](=O)[O-])c1)C(=O)Nc1ccccc1C	> 22.4 µM	> 22.4 µM	–
Cc1ccc2cc(NC(=O)CBr)c3ccc(C)nc3c2n1.Cc1ccc2cc(NC(=O)CBr)c3ccc(C)nc3c2n1.O=C1OC(C(O)C[O-])C(O)=C1O.[Cu+]	> 12.6 µM	3.02 µM	–

SMILES	EC50	IC50	outcome
Cc1cccc(C(C)(C)C)c1NC(=O)CC1C(=O)Nc2ccccc2S1=O (stereo not drawn)	–	–	inactive
COc1cc2c(cc1OC)C1CC3(CC4c5cc(OC)c(OC)cc5CCN4CC3CO)C(CO)CN1CC2 (stereo not drawn)	–	–	inactive
COc1ccccc1/C=C1\CCc2ccccc2C1=O	> 27.5 µM	15.5 µM	–
[O-][n+]1c(-c2ccccc2)oc2ccccc21	> 9.55 µM	> 9.55 µM	–
COc1cc(/C=C2\C(=O)N(C(=O)Cc3ccccc3)N=C2C)cc(OC)c1OC	> 25.1 µM	> 25.1 µM	–
NC(CS)=NCCc1nc2ccccc2[nH]1	> 200 µM	110 µM	–
CC1CCOc2ccc(cc2)C=Nc2ccc(cc2)CCc2ccc(cc2)N=Cc2ccc(cc2)OCC1 (stereo not drawn)	> 200 µM	> 200 µM	–
O=c1[nH]c2ccc(CC(=S)N3CCOCC3)cc2s1	> 200 µM	> 200 µM	–
COc1ccc(C2OCCN2C)cc1 (stereo not drawn)	> 200 µM	> 200 µM	–
COc1ccc(S(=O)(=O)N(C)c2ccccc2)cc1	> 200 µM	7.76 µM	–
CCOC(=O)C1C/C(=N\OC(C)=O)c2ccc(OC)c(OC)c2C1 (stereo not drawn)	–	–	inactive
COC(=O)[C@@]12CCCC(=O)[C@@H]1[C@H]1CCCC[C@H]12	> 200 µM	110 µM	–
COC(=O)C1CCC(=O)N1CN(C(C)=O)c1cc(OC)ccc1OC (stereo not drawn)	> 200 µM	> 200 µM	–
O=C(CCc1n[nH]c(=S)o1)Nc1ccccc1C(F)(F)F	> 295 µM	229 µM	–
CN(Cc1cnc2nc(N)nc(N)c2n1)c1ccc(C(=O)NC(CCC(=O)NC(CC(P(=O)(O)O)P(=O)(O)O)C(=O)O)C(=O)O)cc1 (stereo not drawn)	> 100 µM	0.219 µM	–
O=C1CCCCC/C1=C\c1ccc(F)cc1	> 200 µM	61.7 µM	–
[N-]=[N+]=C1CNC(=O)NC1=O	> 200 µM	30.2 µM	–
CSc1nc(NC2CCCC2)c2cc[nH]c2n1	> 200 µM	43.7 µM	–
COc1ccc(NC(=S)N=Nc2c(O)[nH]c3ccccc23)cc1	> 200 µM	–	–
CCOC(=O)c1ccc(C(=O)/C(C(=O)OC(C)(C)C)=C2\CCCN2C)n1C	89.1 µM	141 µM	–
O=C1/C(=C/c2ccc(O)cc2)CCCC1CN1CCCCC1 (stereo not drawn)	> 2 µM	1.86 µM	–
